Experimental data published in patent US12535460B2, “Small molecule detection in normal ionic strength buffers” (ARIZONA BOARD OF REGENTS ON BEHALF OF ARIZONA STATE …, priority 2020, dated 2026).

Legend:
GPR55 [1] = target: T1, GPR55 (Homo sapiens, UniProt Q9Y2T6); assay: VirD oscillator method, Tocrifluor/GPR55 pair in diluted buffer; assay type: binding
Text: To study the impact of buffer ionic strength on the binding kinetics, the binding results in 1×PBS were compared with results measured in a more diluted buffer solution (40 times diluted 1×PBS) for the same experiments performed with ADRB2-B2 antagonist pair. The solid lines in FIG. 7 show the global fitting of the data with first-order kinetic model. […] Both of the GPCR binding pairs measured involve electrostatic interactions, since the reported binding site of GPR55 is hydrophilic, and ADRB2 is partially hydrophilic. Thus, the affinity measured under normal and diluted PBS are different. […] Due at least in part to the strong ionic screening effect in normal ionic strength buffer, the signal intensity is reduced to about half of the measurement in low ionic strength buffer while the noise remains at a similar level.
Target sequence in this assay (Q9Y2T6 whole entry, species assumed): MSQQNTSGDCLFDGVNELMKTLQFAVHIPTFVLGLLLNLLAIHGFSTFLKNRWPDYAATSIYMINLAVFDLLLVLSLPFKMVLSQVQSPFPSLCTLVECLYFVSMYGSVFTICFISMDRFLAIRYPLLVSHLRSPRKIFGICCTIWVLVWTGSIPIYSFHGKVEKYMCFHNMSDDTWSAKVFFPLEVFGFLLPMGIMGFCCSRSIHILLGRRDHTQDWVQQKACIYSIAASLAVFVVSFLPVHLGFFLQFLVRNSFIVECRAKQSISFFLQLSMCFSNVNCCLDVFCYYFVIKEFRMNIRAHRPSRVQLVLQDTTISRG

[2] = tested on: empty virion K082 (no GPCR displayed); assay: CSOD negative control with empty virion K082 modified fiber; assay type: binding, HSV-1
Text: Virions are functionalized to fiber surface via epoxy coupling, and the binding of respective small molecule antagonists B2 antagonist and Tocrifluor are studied in 1×PBS. First, the virions modified fiber tip was dipped into one well filled with 1×PBS buffer to establish a baseline. Subsequently, the fiber tip was switched from the buffer well to a sample well containing ligands to measure the binding or association process. At last, the fiber tip was switched back to the buffer well for dissociation studies. […] Solid lines are global fitting of the data with a first-order kinetic model. […] For both binding pairs, when no ligand is introduced, the baseline level is within the noise level, showing that the oscillation amplitude change was caused by the specific binding between the ligands and their corresponding receptors.

GPR55 [3] = target: T1, GPR55; assay: CSOD binding kinetics of a small molecule ligand to virion-displayed GPR55; set-up: made in house; host or cells: recombinant HSV-1 virions (VirD), made by collaborators at Johns Hopkins University; conditions: 1×PBS, global fitting with first-order kinetics
Text: An inverted microscope (Olympus IX-70 with 40× objective) with a CCD camera (Pike F-032, Allied Vision) was used for recording 14-bit grayscale image sequences at a frame rate of 106.5. A customized plate with 2 PDMS wells shown in FIGS. 1A and 1B was mounted on a motorized microscope stage (MAC 6000 modular automation controller, Ludl Electronic Products LTD.). Two steel electrodes (1 cm×3 cm) were placed 1 cm apart inside the well, then blocked with agarose electrophoresis gel. A green LED (505 nm, 400 mW, Thorlabs M505L3) light was coupled into the fiber via a focusing lens. Fiber is dipped into analyte solution between the electrophoresis gels. To control the fiber and move the fiber between the 2 wells, the fiber was clamped to a motorized arm (A-LSQ075B, Zaber). A sinusoidal potential was applied with a function generator (33521A, Agilent). A USB data acquisition card (USB-6229, National Instruments) was used to record voltage and current.
The tip (about 1 cm) of an optical fiber thread (about 20 cm) was first soaked in acetone for 1 minute and then rinsed with DI water and dried. The polymer coating layer on the optical fiber was then stripped off with an optical fiber stripper. The bare fiber was etched by soaking it in 47% hydrofluoric acid for 29 minutes and 15 seconds for a diameter of approximately 15 μm. The etched fiber was later rinsed with DI water to wash off the hydrofluoric acid and then blown dry with nitrogen. The tip was cut to about 9 mm long. Before functionalization, the optical fiber was cleaned with oxygen plasma for 3 minutes.
The etched fiber was soaked in (3-glycidyloxypropyl)trimethoxysilane (epoxy) solution (2.5% volume percentage of epoxy in isopropanol) for 1 hour for surface functionalization. The fiber was then rinsed with PBS buffer. […]
By fitting the kinetic curves at different concentrations globally with first-order kinetics, the association rate constant (ka), dissociation rate constant (kd) as well as equilibrium constant (KD) for both binding pairs are calculated.
Target sequence in this assay (Q9Y2T6 whole entry): as the sequence (Q9Y2T6 whole entry, species assumed) above

## Tocrifluor
GPR55 [1]
  Kd: 160 ± 50 nM
[2]
  binding to empty virion K082: binds to neither
GPR55 [3]
  association rate constant ka: 9200 M⁻¹ s⁻¹
  dissociation rate constant kd: 0.00081 s⁻¹
GPR55 [3]; read-out: equilibrium constant KD
  Kd: 89 nM
